Assay results: paper PMC11861159, “Design, synthesis, and in vitro, in vivo, and in silico evaluation of novel substituted 1,3,4-thiadiazole derivatives as anticonvulsant agents” (Frontiers in Chemistry, 2025)

Assays:
mice = test: Rotarod neurotoxicity screening; assay type: in vivo, male Swiss albino mice; conditions: rotarod, oral doses 30, 100, 300 mg/kg
Experimental: The rotarod test, as described in the literature, was used to evaluate neurotoxicity (NT) in mice. In brief, six mice (one group) were trained to balance on a spinning rod (3 cm diameter and 6 rpm speed) to familiarize with the rotarod apparatus (Orchid Scientific, India). Each mouse underwent three trials to remain on the rotating rod for over 1 minute, with the experiment’s cutoff time (180 s) remaining constant. Different pre-oral (p.o.) doses of test and standard substances were administered to the trained animals.

MES-induced seizures = test: Maximal electroshock-induced seizure (MES) test; assay type: in vivo, male Swiss albino mice;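 for % protection MES 0.5 h: percent reduction of the test group versus the control group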;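 for % protection MES 4 h: percent reduction of the test group versus the control group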
PTZ-induced seizures = test: Subcutaneous pentylenetetrazole (sc-PTZ) test; assay type: in vivo, male Swiss albino mice;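 for % protection Sc-PTZ 0.5 h: percent reduction of the test group versus the control group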;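 for % protection Sc-PTZ 4 h: percent reduction of the test group versus the control group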
induced seizures = test: Anticonvulsant screening (MES and sc-PTZ), outcome recovery/death
Experimental: The test compounds and the standard drugs were dissolved in a 0.9% NaCl solution.
After half an hour of p.o. administration of the standard and the tested compounds, an electro-convulsometer (Outus, Ambala Cantt, India) delivered an electrical stimulus of sufficient intensity (25 mA, 500 V, 50 Hz, 0.2 s) via auricular electrodes to induce maximal seizures (Figure 1). To avoid the animal’s death, a drop of 0.9% saline was injected into the eye before the insertion of the electrodes. The tonic hind limb extension (i.e., the hind limbs of the animals outstretched 180° to the plane of the body axis) served as the basic principle for the occurrence of seizure activity. Abolition of the hind limb tonic extensor (HLTE) component of the seizure is defined as protection.

[1] = target: T1, human carbonic anhydrase IX (Homo sapiens, UniProt Q16790); test: Human carbonic anhydrase IX colorimetric (p-nitrophenyl acetate) inhibition assay; assay type: biochemical; conditions: mean ± SEM, three independent experiments in triplicate; read-out: CA IX (IC50)
T1 construct: purchased Sino Biological Inc, Beijing, China
Experimental: (§1) In brief, the reaction mixture contained 60 μL of 50 mM Tris-sulfate buffer (pH 7.6, containing 0.1 mM ZnCl2),10 μL (0.5 mM) of the test compound in 1% DMSO, and 10 μL of human carbonic anhydrase II and IX (Sino Biological Inc, Beijing, China). All the ingredients were mixed well and pre-incubated at 25°C for 10 min. Substrate p-nitrophenyl acetate was prepared as a 6 mM stock solution using 5% of acetonitrile in buffer and was used fresh. […] The total assay volume was adjusted to 100 μL and further incubated at 37°C for 30 min. Furthermore, all the ingredients were mixed properly, and absorbance was measured. […] The results reported are the mean of triplicate experiments (±SEM) and expressed IC50 values, which were calculated.

[2] = target: T2, human carbonic anhydrase II (Homo sapiens, UniProt P00918); test: Human carbonic anhydrase II colorimetric (p-nitrophenyl acetate) inhibition assay; assay type: biochemical; conditions: mean ± SEM, three independent experiments in triplicate; read-out: CA II (IC50)
T2 construct: purchased Sino Biological Inc, Beijing, China
Experimental: as §1

[3] = oral, lowest dose active in half or more of the mice, 0.5 h, n = 6
[4] = oral, lowest dose active in half or more of the mice, 4 h, n = 6

For `COc1ccc(C(=O)Nc2nncs2)cc1OCCN(C)C` [Compound 7e, 4-Methoxy-3-(2-(dimethylamino)ethoxy)-N-(1,3,4-thiadiazol-2-yl)benzamide], the “Neurotoxicity dose (mg/kg) 0.5 h” value (mice; 0.5 h) was “- (The indication - (dash) denotes a lack of action at the maximum dose supplied (300 mg/kg))”, the “Neurotoxicity dose (mg/kg) 4 h” value (mice; 4 h) was “- (The indication - (dash) denotes a lack of action at the maximum dose supplied (300 mg/kg))” and the “% protection MES 0.5 h” value (MES-induced seizures; 30 mg/kg oral, 0.5 h) was 36.92%. For the same compound, the “% protection MES 0.5 h” value (MES-induced seizures; 100 mg/kg oral, 0.5 h) was 43.07%, the “% protection MES 4 h” value (MES-induced seizures; 100 mg/kg oral, 4 h) was 58.46% and the “% protection MES 0.5 h” value (MES-induced seizures; 300 mg/kg oral, 0.5 h) was 60%. The “% protection MES 4 h” value (MES-induced seizures; 300 mg/kg oral, 4 h) was 72.30%, the “Minimum active dose (mg/kg) MES 0.5 h” value (MES-induced seizures; [3]) was 30 mg/kg and the “Minimum active dose (mg/kg) MES 4 h” value (MES-induced seizures; [4]) was 100 mg/kg. The “% protection Sc-PTZ 0.5 h” value (PTZ-induced seizures; 30 mg/kg oral, 0.5 h) was 34.26%, the “% protection Sc-PTZ 0.5 h” value (PTZ-induced seizures; 100 mg/kg oral, 0.5 h) was 43.07% and the “% protection Sc-PTZ 4 h” value (PTZ-induced seizures; 100 mg/kg oral, 4 h) was 61.04%. For the same compound, the “% protection Sc-PTZ 0.5 h” value (PTZ-induced seizures; 300 mg/kg oral, 0.5 h) was 60%, the “% protection Sc-PTZ 4 h” value (PTZ-induced seizures; 300 mg/kg oral, 4 h) was 67.81% and the “Minimum active dose (mg/kg) Sc-PTZ 0.5 h” value (PTZ-induced seizures; [3]) was 30 mg/kg. For the same compound, the “Minimum active dose (mg/kg) Sc-PTZ 4 h” value (PTZ-induced seizures; [4]) was 100 mg/kg, the Recovery/death (induced seizures; 30 mg/kg oral) was “Recovery” and the Recovery/death (induced seizures; 100 mg/kg oral) was “Recovery”. For the same compound, the Recovery/death (induced seizures; 300 mg/kg oral) was “Recovery”, the IC50 [1] was 610 ± 20 nM and the IC50 [2] was 530 ± 30 nM.
